Data as given in article PMC3545186 (Biochemical Pharmacology, 2013).
Where “and” joins values, the source holds several entries; their conditions need not be identical. Equal entries are not always repeated. Numbered stars: 1 amine (or outer) side, 2 acyl side, 3 side chain; on linkers, the order of the positions; unused ones are H or OH. Bridge positions count the residues as written; N and C are the ends. Square brackets hold non-standard residues; d marks the D form. Peptide text beside a SMILES is read from it. I, II: the chains in the order shown. Actinocin(9to1) = Cc1c2oc3c(C)ccc(C(=O)[*:1])c3nc-2c(C(=O)[*:2])c(N)c1=O; NMeV = CN[C@H](C(=O)O)C(C)C; Sar = CNCC(=O)O

Experiments:
MDCKII-WT cells [1] = experiment: Growth inhibition; format: cell-based, canine
MDCKII-ABCC1 cells [2] = experiment: Growth inhibition; format: cell-based, canine; details: MDCKII-ABCC1, MK571 25 μM
MDCKII-ABCC2 cells [3] = experiment: Growth inhibition; format: cell-based, canine; details: MDCKII-ABCC2, MK571 25 μM, p = 0.23
ABCG2 (BCRP) = experiment: Growth inhibition; format: cell-based, canine; details: dog, MDCKII cells transfected with human ABCG2 (BCRP)
MDCKII-ABCG2 cells [4] = experiment: Growth inhibition; format: cell-based, canine; details: MDCKII-ABCG2, Act D alone or with KO143, p = 0.74
MDCKII-WT cells [5] = experiment: Intracellular accumulation of Act D; format: in vitro ADME, canine; details: 0.01 μM Act D, 12 h
MDCKII-ABCB1 cells [6] = experiment: Intracellular accumulation of Act D; format: in vitro ADME, canine
MDCKII-ABCC1 cells [7] = experiment: Intracellular accumulation of Act D; format: in vitro ADME, canine
MDCKII-ABCG2 cells [8] = experiment: Intracellular accumulation of Act D; format: in vitro ADME, canine
MDCKII-ABCB1 cells [9] = experiment: Cellular efflux of Act D after 4 h uptake; format: in vitro ADME, canine; details: MDCKII-ABCB1, after 4 h with 0.1 μM Act D
MDCKII-ABCC1 cells [10] = experiment: Cellular efflux of Act D after 4 h uptake; format: in vitro ADME, canine; details: MDCKII-ABCC1, after 4 h with 0.1 μM Act D
MDCKII-ABCC2 cells [11] = experiment: Cellular efflux of Act D after 4 h uptake; format: in vitro ADME, canine
MDCKII-ABCG2 cells [12] = experiment: Cellular efflux of Act D after 4 h uptake; format: in vitro ADME, canine; details: MDCKII-ABCG2, not statistically significant
MDCKII-ABCB1 cells [13] = experiment: Fluorescence competition assay with ABCB1 substrate doxorubicin; format: cell-based, canine; details: MDCKII-ABCB1, 1 h pre-incubation, doxorubicin 10 μM 1 h
in vivo = format: in vivo, mice; details: for Cmax / Tmax / half-life: mouse, in vivo, iv
[14] = format: in vivo, mice; details: 0.5 mg/kg i.v.
[15] = Abcb1a/1b−/− knockout (parental strain FVB), 0.5 mg/kg
[16] = Abcc2−/− knockout (parental strain FVB), 0.5 mg/kg
[17] = Abcc2−/− mice, 0.5 mg/kg i.v., 0.5 mg/kg
[18] = WT mice, 0.5 mg/kg i.v., 0.5 mg/kg

SMILES: Cc1c2oc3c(C)ccc(C(=O)N[C@@H]4C(=O)N[C@H](C(C)C)C(=O)N5CCC[C@H]5C(=O)N(C)CC(=O)N(C)[C@@H](C(C)C)C(=O)O[C@@H]4C)c3nc-2c(C(=O)N[C@@H]2C(=O)N[C@H](C(C)C)C(=O)N3CCC[C@H]3C(=O)N(C)CC(=O)N(C)[C@@H](C(C)C)C(=O)O[C@@H]2C)c(N)c1=O [Act D, actinomycin D] (I: T[dV]P[Sar][NMeV] / II: T[dV]P[Sar][NMeV]; ester I:1-I:C, II:1-II:C; linker I:N-II:N via Actinocin(9to1))
- increase in sensitivity to Act D with MK571 (MDCKII-WT cells [1]; MK571 25 μM): 3 fold
- reduction in GI50 with verapamil (MDCKII-WT cells [1]; verapamil 1 μM, 72 h): 3 fold
- increase in sensitivity to Act D with MK571 (MDCKII-ABCC1 cells [2]): greater than 4 fold
- effect of MK571 on sensitivity to Act D (MDCKII-ABCC2 cells [3]): no effect
- GI50 at 72 h (ABCG2 (BCRP)): 14 nM
- difference in sensitivity vs parental cell line (MDCKII-ABCG2 cells [4]): No difference in sensitivity
- intracellular accumulation of Act D (MDCKII-WT cells [5]): 0.98 nM
- intracellular accumulation of Act D (MDCKII-ABCB1 cells [6]; MDCKII-ABCB1, 0.01 μM Act D, 12 h): 0.1 nM
- increase in intracellular Act D with verapamil (MDCKII-ABCB1 cells [6]; MDCKII-ABCB1, 10 μM verapamil, 0.1 μM Act D, 4 h): 7.9 fold
- lower accumulation of Act D compared to parental cell line (MDCKII-ABCB1 cells [6]; MDCKII-ABCB1 vs MDCKII-WT, 0.01 μM Act D, 12 h): 9.8 fold
- increased accumulation with MK571 compared to absence of inhibitor (MDCKII-ABCC1 cells [7]; MDCKII-ABCC1, not statistically significant): 1.2 fold
- lower accumulation of Act D compared to parental cell line (MDCKII-ABCC1 cells [7]; MDCKII-ABCC1 vs MDCKII-WT, 12 h): 2.5 fold and 2.45 fold
- Act D accumulation compared to WT cells (MDCKII-ABCG2 cells [8]; MDCKII-ABCG2): not different to WT cells
- effect of co-incubation with KO143 on Act D accumulation (MDCKII-ABCG2 cells [8]; MDCKII-ABCG2, data not shown): no effect
- reduction in intracellular Act D over 2 h after drug removal (MDCKII-ABCB1 cells [9]): 5.5 fold
- reduction in intracellular Act D over 2 h after drug removal (MDCKII-ABCC1 cells [10]): 1.9 fold
- reduction in intracellular Act D over 2 h after drug removal (MDCKII-ABCC2 cells [11]; MDCKII-ABCC2, after 4 h with 0.1 μM Act D): 2.1 fold
- reduction in intracellular Act D over 1 h after drug removal (MDCKII-ABCC2 cells [11]; MDCKII-ABCC2, compared to parental cell line): 1.8 fold
- higher intracellular Act D after 2 h (MDCKII-ABCG2 cells [12]): 1.5 fold
- Act D concentration required to maximally inhibit doxorubicin efflux (MDCKII-ABCB1 cells [13]): 1 to 25 µM
- greater plasma AUC0–∞ in Abcb1a/1b−/− mice compared to WT (in vivo; 0.5 mg/kg i.v.): 1.9 fold
- higher plasma AUC0–6 h in Abcb1a/1b−/− mice compared to WT (in vivo; 0.5 mg/kg i.v.): 1.6 fold
- higher plasma Cmax at 15 min in Abcb1a/1b−/− mice compared to WT (in vivo; 0.5 mg/kg i.v.): 1.4 fold
- higher plasma concentration at 30 min in Abcb1a/1b−/− mice compared to WT (in vivo; 0.5 mg/kg i.v.): 1.7 fold
- longer elimination half-life (t1/2) in Abcb1a/1b−/− mice compared to WT (in vivo; 0.5 mg/kg i.v.): 1.5 fold
- Cmax (in vivo; [15]): 96.7 ± 12 ng/mL
- Tmax (in vivo; [15]): 15 min
- half-life (in vivo; [15]): 167 min
- plasma AUC0–∞ (in vivo; Abcb1a/1b−/− mice, 0.5 mg/kg i.v., 0.5 mg/kg): 322.6 µg·h/L
- Act D plasma concentration (in vivo; Abcb1a/1b−/− mice, 0.25 h, 0.5 mg/kg i.v.): 96.7 ± 12.0 µg/L
- Act D plasma concentration (in vivo; Abcb1a/1b−/− mice, 0.5 h, 0.5 mg/kg i.v., 0.5 mg/kg): 71.6 µg/L and 71.6 ± 12.3 µg/L
- Act D plasma concentration (in vivo; Abcb1a/1b−/− mice, 2 h, 0.5 mg/kg i.v.): 35.8 ± 2.01 µg/L
- Act D plasma concentration (in vivo; Abcb1a/1b−/− mice, 6 h, 0.5 mg/kg i.v.): 20.1 ± 0.78 µg/L
- half-life (in vivo; Abcc2−/− knockout (FVB background), 0.5 mg/kg): 148 min
- Cmax (in vivo; [16]): 48 ± 11.1 ng/mL
- Tmax (in vivo; [16]): 15 min
- plasma AUC0–6 h (in vivo; [17]): 114.8 µg·h/L
- plasma AUC0–∞ (in vivo; [17]): 145.2 µg·h/L
- Act D plasma concentration (in vivo; Abcc2−/− mice, 0.25 h, 0.5 mg/kg i.v.): 48.0 ± 11.1 µg/L
- Act D plasma concentration (in vivo; Abcc2−/− mice, 0.5 h, 0.5 mg/kg i.v.): 37.7 ± 6.07 µg/L
- Act D plasma concentration (in vivo; Abcc2−/− mice, 2 h, 0.5 mg/kg i.v.): 16.3 ± 3.73 µg/L
- Act D plasma concentration (in vivo; Abcc2−/− mice, 6 h, 0.5 mg/kg i.v.): 8.6 ± 0.96 µg/L
- Cmax (in vivo; FVB (wild type), 0.5 mg/kg): 68.6 ± 15.6 ng/mL
- Tmax (in vivo; FVB (wild type), 0.5 mg/kg): 15 min
- half-life (in vivo; FVB (wild type), 0.5 mg/kg): 115 min
- plasma AUC0–6 h (in vivo; [18]): 151.5 µg·h/L
- plasma AUC0–∞ (in vivo; [18]): 168.1 µg·h/L
- Act D plasma concentration (in vivo; WT mice, 0.25 h, 0.5 mg/kg i.v.): 68.6 ± 15.6 µg/L
- Act D plasma concentration (in vivo; WT mice, 0.5 h, 0.5 mg/kg i.v., 0.5 mg/kg): 43.3 µg/L and 43.3 ± 7.68 µg/L
- Act D plasma concentration (in vivo; WT mice, 2 h, 0.5 mg/kg i.v.): 25.8 ± 4.78 µg/L
- Act D plasma concentration (in vivo; WT mice, 6 h, 0.5 mg/kg i.v.): 6.0 ± 0.65 µg/L
- higher brain AUC0–6 h in Abcb1a/1b−/− mice compared to WT [14]: 2.3 fold
- higher brain AUC0–6 h in Abcc2−/− mice compared to WT [14]: 1.3 fold
- Brain AUC0–6 h (peak area) ([14]; Abcb1a/1b−/− mice): 6802 pa/g h
- Brain Cmax (peak area) ([14]; Abcb1a/1b−/− mice): 1420 ± 521 pa
- Kidney AUC0–6 h ([14]; Abcb1a/1b−/− mice): 35,381 μg/L h
- Kidney AUC0–∞ ([14]; Abcb1a/1b−/− mice): 46,701 μg/L h
- Kidney Cmax ([14]; Abcb1a/1b−/− mice): 13,207 ± 1025 μg/L
